Measured values as given in BindingDB's records for doi:10.1021/jm0704651 (University of Turin, 2007).

Target: T1, Lanosterol synthase (Homo sapiens, UniProt P48449)
T1 sequence (P48449 whole entry): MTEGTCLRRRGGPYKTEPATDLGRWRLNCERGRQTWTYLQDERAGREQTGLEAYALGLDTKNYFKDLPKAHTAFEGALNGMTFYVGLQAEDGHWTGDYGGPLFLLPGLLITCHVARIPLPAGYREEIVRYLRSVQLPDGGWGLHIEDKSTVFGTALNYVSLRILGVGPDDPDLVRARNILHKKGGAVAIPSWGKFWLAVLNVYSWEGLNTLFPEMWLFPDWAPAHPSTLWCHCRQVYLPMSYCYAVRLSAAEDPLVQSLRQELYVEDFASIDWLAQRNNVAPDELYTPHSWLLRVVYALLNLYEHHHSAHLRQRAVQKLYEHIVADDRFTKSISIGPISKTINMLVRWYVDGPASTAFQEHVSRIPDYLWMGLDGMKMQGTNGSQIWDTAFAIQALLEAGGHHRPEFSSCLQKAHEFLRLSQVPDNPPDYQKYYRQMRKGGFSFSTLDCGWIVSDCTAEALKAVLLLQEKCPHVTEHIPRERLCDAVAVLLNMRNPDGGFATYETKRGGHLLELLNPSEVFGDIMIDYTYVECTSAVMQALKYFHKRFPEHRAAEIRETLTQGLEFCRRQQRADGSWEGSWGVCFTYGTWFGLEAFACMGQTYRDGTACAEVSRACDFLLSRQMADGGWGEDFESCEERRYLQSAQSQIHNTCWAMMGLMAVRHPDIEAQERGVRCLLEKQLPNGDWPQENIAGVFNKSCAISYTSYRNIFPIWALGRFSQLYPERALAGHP
Test: Inhibition of oxidosqualene cyclase

- IC50: 19 nM
SMILES: C=CCN(C)CCCCCCOc1ccc2c(-c3ccc(Br)cc3)nn(C)c2c1
